Measured values published in patent US5914329A, “Dimesylate salts of neuropeptide Y ligands” (Pfizer Inc., priority 1997, dated 1999).
Counter-ions that a name gives are not always drawn.

Legend:
Chemical stability = type: physicochemical
[1] = Bioavailability (species not stated); settings: in words
[2] = Aqueous solubility of salts
[3] = Hygroscopicity evaluation at high humidities; type: physicochemical; settings: humidities below 90%

CCOc1cccc(C2(N3CCN(c4ccccc4)CC3)CCC(C)CC2)c1 (stereo not drawn) [compound I, dimesylate salt of cis-1-(3-ethoxyphenyl)-1-(4-phenylpiperazin-1-yl)-4-methyl-cyclohexane]
stability (Chemical stability; in words): good | bioavailability [1]: good | solubility ([2]; solubility, dimesylate salt, medium not stated): 31 mg/mL

CCOc1cccc(C2(N3CCN(c4ccccc4)CC3)CCC(C)CC2)c1 (stereo not drawn) [dihydrochloride, cis-1-(3-ethoxyphenyl)-1-(4-phenylpiperazin-1-yl)-4-methyl-cyclohexane, reference compound]
stability in the solid state (Chemical stability; solid state, in words): unstable | bioavailability in dogs (Bioavailability in dogs): 75% | solubility ([2]; water, water solubility): 1 mg/mL

CCOc1cccc(C2(N3CCN(c4ccccc4)CC3)CCC(C)CC2)c1 (stereo not drawn) [form A, Dimesylate salt of cis-1-(3-ethoxyphenyl)-1-(4-phenylpiperazin-1-yl)-4-methylcyclohexane]
Chemical stability (Chemical stability; 40° C. in 75% RH): no detectable degradation | Chemical stability (Chemical stability; 70° C., at ambient humidity): no detectable degradation | Chemical stability (Chemical stability; light box under fluorescent light): no detectable degradation | hygroscopicity [3]: non-hygroscopic | solubility ([2]; water, Aqueous solubility, isolated form A of the dimesylate salt): 31 mg/mL

CCOc1cccc(C2(N3CCN(c4ccccc4)CC3)CCC(C)CC2)c1 (stereo not drawn) [fumarate salt, cis-1-(3-ethoxyphenyl)-1-(4-phenylpiperazin-1-yl)-4-methyl-cyclohexane, reference compound]
solubility ([2]; water, solubility in water, in water): 0.04 mg/mL
